Test results taken from patent US8609695B2, “Methods of treating and/or suppressing insulin resistance” (Endorecherche, Inc., priority 1999, dated 2013).
Marks after values point to notes of the source that are not given here.

Key:
ovariectomized rats = experiment: 20-day treatment with EM-652.HCl, body fat, body weight and energy balance (Example 3); format: in vivo, rat; conditions: 20 days
Protocol: Eight to ten week-old female Sprague-Dawley rats (Crl:CD(SD)Br) (Charles River Laboratory, St-Constant, Canada) weighing approximately 200-225 g at the start of treatment were used. The animals were acclimatized to the environmental conditions (temperature: 22±3° C.; 10-h light-14-h dark cycles, lights on at 06:00 h) for 1 week before starting the experiment. The animals were housed individually in stainless steel cages of conventional design and were allowed free access to tap water and a high carbohydrate mixed diet composed of (g/100 g): Corn starch, 31.2; Dextrose, 31.2; Casein, 20.0; corn oil, 6.4; dl-Methionine, 0.3; Vitamine mix, 1.0; AIN-76 mineral mix, 4.9 and fiber, 5.0. The experiment was conducted in a Canadian Council on Animal Care approved facility in accordance with the CCAC Guide for Care and Use of Experimental Animals.
On day 1 of the study, the animals of the appropriate groups were bilaterally ovariectomized (OVX) under isoflurane anesthesia. […] The treatment with EM-652.HCl or vehicle alone (0.4% methylcellulose in water) was initiated on day 2 of the study. The compound or vehicle was given once daily by oral gavage in 0.5 ml/rat for 20 days. Body weights and food consumption were recorded every 2 days.
Approximately 24 hours after the last dosing, overnight fasted animals were anesthesized with ketamine-xylazine and blood drawn by cardiac puncture. The blood was collected as well as white and brown adipose tissues.
Body weight, food intake, and body gains in energy, fat, and protein were determined according to Deshaies et al, Am. J. Physiol., 1997; 273, E355-E362 (1997).
Lipoprotein lipase activities were determined according to Deshaies et al, Am. J. Physiol., 1997; 273, E355-E362 (1997).

[1] = system: lean and obese Zucker male rats; experiment: Energy balance and lipid-lipoprotein metabolism in Zucker male rats (Example 8A); format: in vivo, Rattus norvegicus; conditions: for Lipoprotein lipase activity White retroperitoneal / Lipoprotein lipase activity soleus / Plasma glucose / Plasma insulin / Plasma total cholesterol / Plasma triglycerides / Weight gain: 2.5 mg/kg orally once daily, 14 days; for decrease of body weight gain / reduction of plasma insulin: 2.5 mg/kg/day
Protocol: The objective of this study was to determine the effect of EM-652.HCl on energy balance and lipid-lipoprotein metabolism in lean and obese Zucker male rats. For this purpose, EM-652.HCl (2.5 mg/kg) was administered orally (gavage) once daily for 14 days to intact lean and obese Zucker male rats.
d) Diet: During the acclimation period, rats received a commercial rodent diet (Purina, #5075) and tap water ad libitum. During study period, rats received the following diet (diet #3) composed of (g/100 g): Starch, 31.2; Dextrose, 31.2; Casein, 20.0; Corn oil, 6.4; dl-Methionine, 0.3; Vitamin mix, 1.0; AIN-76 mineral mix, 4.9; Fiber, 5.0.
Test groups: Sixteen lean and sixteen obese intact male rats were assigned to 4 groups of 8 rats for conduct of the study outlined below
Administration of the tested compound or vehicle started on Day 1 of the study. The tested compound EM-652.HCl was given as suspension in 0.4% methylcellulose by oral gavage (0.5 ml/gavage/rat) once daily for 14 days. Rats from control groups received the vehicle alone (0.5 ml/gavage/rat) for the same time period.
During the acclimation period, animals were weighed one day prior to the start of dosing for randomization. Then, rats were weighed on the first dosing day and every 2 days thereafter as well as on the day of necropsy. Body weights were recorded with a precision of 1 g.
Following an approximative 6-hour fasting period, animals were necropsied (approximately 30 hours after the last dosing). They were anesthesized with ketamine-xylazine and blood drawn by cardiac punction.
Blood lipids (Total cholesterol (CHOL) and Triglycerides (TG)) and glucose were measured on frozen plasma samples using the Boehringer Mannheim Diagnostic Hitachi 911 Analyzer (Boehringer Mannheim Diagnostic Laboratory Systems). Circulating hormones and substrates (Leptin, Insulin) were measured on frozen plasma samples with the following kits: • Leptin: Linco RLA kit • Insulin: Linco RIA kit Organs and Tissues Collected:
The retroperitoneal adipose tissue and the soleus (muscle) were collected and frozen in liquid nitrogen for further determination of lipoprotein lipase (LPL) activity. The prostate, testes (right and left together) and right seminal vesicle (empty of fluid) were weighed. The right seminal vesicles were discarded.

[2] = OVX rats, EM-652.HCl 0.5 mg/rat oral once daily, E2 implant

**Q.** How did the “Ovx-induced increase in energy intake” value (ovariectomized rats) turn out when `CC1=C(c2ccc(O)cc2)[C@H](c2ccc(OCCN3CCCCC3)cc2)Oc2cc(O)ccc21.Cl` [EM-652.HCl, (S)-(+)-7-hydroxy-3-(4′-hydroxyphenyl)-4-methyl-2-(4″-(2′″-piperidino-ethoxy)phenyl)-2H-1-benxopyran hydrochloride] was run?
**A.** Its value is “completely prevented”.

**Q.** What about the “Ovx-induced insulin resistance (fasting hyperinsulinemia and hyperglycemia)” value (ovariectomized rats; FIG. 5) of the same molecule?
**A.** Its value is “prevented”.

**Q.** What about the “decrease in soleus muscle lipoprotein lipase by Ovx” value (ovariectomized rats; FIG. 8) of the same molecule?
**A.** The value was “prevented”.

**Q.** And the “soleus weight increase by Ovx” value (ovariectomized rats; FIG. 8)?
**A.** Its value is “prevented”.

**Q.** What about the “OVX increase in mass of inguinal and retroperitoneal adipose tissues” value (ovariectomized rats; FIGS. 6A and 6C) of the same molecule?
**A.** The value was “completely abolished”.

**Q.** What about the “body weight gain after ovariectomy” value (ovariectomized rats; OVX rats, FIG. 2A) of the same molecule?
**A.** Its value is “completely reversed”.

**Q.** What about the protein gain (ovariectomized rats; OVX rats, FIG. 2B) of the same molecule?
**A.** The protein gain was “less accentuated”.

**Q.** What about the “fat gain after ovariectomy” value (ovariectomized rats; OVX rats, FIG. 2C) of the same molecule?
**A.** The value was “completely reversed”.

**Q.** And the Cumulative food intake (ovariectomized rats; OVX rats, FIG. 3)?
**A.** The Cumulative food intake was “lower than that of intact animals”.

**Q.** And the “increase in body energy from proteins following ovariectomy” value (ovariectomized rats; OVX rats, FIG. 4A)?
**A.** The value was “completely reversed”.

**Q.** And the “increase in body energy from fat following ovariectomy” value (ovariectomized rats; OVX rats, FIG. 4B)?
**A.** The value was “completely reversed”.

**Q.** And the “interscapular brown adipose tissue weight, protein content and lipoprotein lipase activity” value (ovariectomized rats; OVX rats, FIG. 7)?
**A.** The value was “completely reversed”.

**Q.** What about the Digestible energy intake (ovariectomized rats; [2]) of the same molecule?
**A.** Its Digestible energy intake is 4479^b kJ.

**Q.** What about the Enegery gain (ovariectomized rats; [2]) of the same molecule?
**A.** The Enegery gain was 278^b kJ.

**Q.** And the “Apparent energy (expenditure)” value (ovariectomized rats; OVX rats, calculated from energy intake and energy gain)?
**A.** The value was 4201^b kJ.

**Q.** What about the Food efficiency (ovariectomized rats; OVX rats, kJ deposited per 100 kJ ingested) of the same molecule?
**A.** The Food efficiency was 5.9b %.

**Q.** What about the “Lipoprotein lipase activity White retroperitoneal” value ([1]; lean Zucker male rats) of the same molecule?
**A.** Its value is 1701 ± 348 μU/g protein.

**Q.** And the “Lipoprotein lipase activity soleus” value ([1]; lean Zucker male rats)?
**A.** The value was 69.5 ± 8.4 μU/g protein.

**Q.** And the Plasma glucose ([1]; lean Zucker male rats)?
**A.** Its Plasma glucose is 9.35 ± 0.51 mmol/L.

**Q.** And the Plasma insulin ([1]; lean Zucker male rats)?
**A.** Its Plasma insulin is 0.062 ± 0.005 nmol/L.

**Q.** What about the Plasma total cholesterol ([1]; lean Zucker male rats) of the same molecule?
**A.** Its Plasma total cholesterol is 1.18 ± 0.09 mmol/L.

**Q.** What about the Plasma triglycerides ([1]; lean Zucker male rats) of the same molecule?
**A.** Its Plasma triglycerides is 1.52 ± 0.13 mmol/L.

**Q.** And the Weight gain ([1]; lean Zucker male rats)?
**A.** The Weight gain was 44.9 ± 3.5 g.

**Q.** And the “decrease of body weight gain” value ([1]; lean male Zucker rats)?
**A.** Its value is 38%.

**Q.** What about the “reduction of plasma insulin” value ([1]; lean male Zucker rats) of the same molecule?
**A.** The value was 35%.

**Q.** What about the “Lipoprotein lipase activity White retroperitoneal” value ([1]; obese Zucker male rats) of the same molecule?
**A.** Its value is 7046 ± 1185 μU/g protein.

**Q.** What about the “Lipoprotein lipase activity soleus” value ([1]; obese Zucker male rats) of the same molecule?
**A.** The value was 58.1 ± 4.6 μU/g protein.

**Q.** And the Plasma glucose ([1]; obese Zucker male rats)?
**A.** The Plasma glucose was 11.84 ± 0.62 mmol/L.

**Q.** What about the Plasma insulin ([1]; obese Zucker male rats) of the same molecule?
**A.** The Plasma insulin was 0.475 ± 0.087 nmol/L.

**Q.** What about the Plasma total cholesterol ([1]; obese Zucker male rats) of the same molecule?
**A.** Its Plasma total cholesterol is 2.28 ± 0.25 mmol/L.

**Q.** And the Plasma triglycerides ([1]; obese Zucker male rats)?
**A.** Its Plasma triglycerides is 7.16 ± 1.06 mmol/L.

**Q.** What about the Weight gain ([1]; obese Zucker male rats) of the same molecule?
**A.** The Weight gain was 71.6 ± 3.3 g.

**Q.** And the “decrease of body weight gain” value ([1]; obese male Zucker rats)?
**A.** The value was 35%.

**Q.** And the “reduction of plasma insulin” value ([1]; obese male Zucker rats)?
**A.** Its value is 57%.
